Patent US20220378809A1, “SYNTHETIC COMPOSITION FOR BALANCING THE BILE ACID PROFILE IN THE INTESTINE” (GLYCOM A/S, priority 2019, published 2022)

Key:
[1] = tested on: dextran sodium sulphate-induced colitis; conditions: mice; daily oral administration; cited from earlier work
colonic microbiota = test: In vitro intestinal system simulating the colon of a human infected with C. difficile, after Vancomycin treatment; conditions: end of washout period
Text: An in vitro intestinal system is used to simulate the colon region in a human infected with C. difficile. The system is inoculated with fresh faecal samples from a healthy individual aged >65 years. The system is run for two weeks as a set up period to stabilise the system. The system is fed daily with a feed solution and with bile acids (primarily taurocholic acid and glycocholic acid). Afterwards, two different interventions are run in parallel for 4 weeks. • Intervention: daily addition of 2′-FL and LNnT (ratio 4:1 by weight) plus an antibiotic (Vancomycin) for seven days, followed by 2′-FL and LNnT (ratio 4:1 by weight) without antibiotic for the next 3 weeks (wash out period), • Control: an antibiotic (Vancomycin) for seven days, followed by no intervention for the next 3 weeks (wash out period). During the antibiotic treatment and washout periods, both the intervention and the control receive the same daily feed including bile acids. At three time points (end of set up period, end of antibiotic treatment, and end of wash out period), the microbiota community and bile acids are measured using 16S sequencing and HPLC-UV method, respectively. The in vitro intestinal system is run as in example 1 except that the intervention is a daily addition of 2′-FL plus an antibiotic (Vancomycin) for seven days, followed by 2′-FL alone for the next 3 weeks (wash out period). The control is as in example b 1. • Control: an antibiotic (Vancomycin) for seven days, followed by no intervention for the next 3 weeks (wash out period).

intestinal cells = conditions: cited from earlier work

Molecule: C[C@H](CCC(=O)NCC(=O)O)[C@H]1CC[C@H]2[C@@H]3[C@@H](O)C[C@@H]4C[C@H](O)CC[C@]4(C)[C@H]3CC[C@]12C [GUDCA, glycoursodeoxycholic acid]
- severity of dextran sodium sulphate-induced colitis [1]: equally lowered the severity

Molecule: 2′-fucosyllactose [2′-FL]
- colonic bile acid metabolism (colonic microbiota): re-established
- restoration of the microbiota (colonic microbiota; 16S sequencing): restored
- secondary bile acids (colonic microbiota; HPLC-UV): presence of the secondary bile acid deoxycholic acid (DCA)
- primary bile acids (cholic acid (CA) and glyco-chenodeoxycholic acid (GCDCA)) (colonic microbiota; HPLC-UV, versus Vancomycin-only control): decrease in primary bile acids

Molecule: C[C@H](CCC(=O)NCCS(=O)(=O)O)[C@H]1CC[C@H]2[C@@H]3[C@@H](O)C[C@@H]4C[C@H](O)CC[C@]4(C)[C@H]3CC[C@]12C [TUDCA, tauroursodeoxycholic acid]
- severity of dextran sodium sulphate-induced colitis [1]: equally lowered the severity

Molecule: C[C@H](CCC(=O)O)[C@H]1CC[C@H]2[C@@H]3[C@H](O)C[C@@H]4C[C@H](O)CC[C@]4(C)[C@H]3CC[C@]12C [CDCA, chenodeoxycholic acid]
- permeability of intestinal cells (intestinal cells): increased the permeability
- release of proinflammatory cytokines (intestinal cells): increased
